For one assay, the system named is NCI-H460. Briefly: Inhibition of non-small cell lung carcinoma (NCI-460) cell proliferation. In kind it is functional, cell-based. The following applies: Homo sapiens.
Assay [1] has as its target Cyclin-dependent kinase 4/cyclin D1 (Homo sapiens, UniProt P11802). Briefly: Inhibitory activity against cyclin D1/ (cyclin dependent kinase) CDK4. It is filed as protein-complex assay.
Another assay concerns HCT-116. The assay can be described thus: Inhibition of human colon carcinoma (HCT116) cell proliferation. It is filed as functional, cell-based.

pIC50: −log10 of the molar value.

Chain of Cyclin-dependent kinase 4/cyclin D1 (P11802 whole entry): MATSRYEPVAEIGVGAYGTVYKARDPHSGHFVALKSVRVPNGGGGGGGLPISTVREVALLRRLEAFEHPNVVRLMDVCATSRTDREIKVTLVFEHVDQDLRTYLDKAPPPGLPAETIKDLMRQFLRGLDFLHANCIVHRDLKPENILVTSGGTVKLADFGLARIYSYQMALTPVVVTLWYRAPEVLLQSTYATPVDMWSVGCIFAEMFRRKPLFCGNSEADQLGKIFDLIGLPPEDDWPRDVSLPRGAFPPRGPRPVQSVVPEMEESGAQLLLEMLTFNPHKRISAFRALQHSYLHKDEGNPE
Chain of Cyclin-dependent kinase 4/cyclin D1 (P24385 whole entry, further chain): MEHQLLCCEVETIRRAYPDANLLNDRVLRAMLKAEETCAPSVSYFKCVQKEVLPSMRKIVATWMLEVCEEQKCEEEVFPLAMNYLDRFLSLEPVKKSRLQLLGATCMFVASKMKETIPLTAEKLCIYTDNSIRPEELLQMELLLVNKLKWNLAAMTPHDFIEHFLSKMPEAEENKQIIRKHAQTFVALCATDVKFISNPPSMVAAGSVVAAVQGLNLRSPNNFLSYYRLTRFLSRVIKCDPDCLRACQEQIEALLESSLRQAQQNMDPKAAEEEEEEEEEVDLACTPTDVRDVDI

With `O=C1NC(=O)c2c1c1c(ccc3cccnc31)c1[nH]c3ccccc3c21`, the pIC50 (as a rule, the negative decadic logarithm of the IC50, by convention in mol/L) in the assay with NCI-H460 was 5.45; in assay [1], below 5.70; in the assay with HCT-116, 6.10.
The matching figures for `O=C1NC(=O)c2c1c1c3ccccc3cnc1c1c2c2ccccc2n1CCCO`: 6.39, below 5.70 and 6.80.
The matching figures for `CN(C)CCCn1c2ccccc2c2c3c(c4c5ccccc5cnc4c21)C(=O)NC3=O`: 6.43, 6.77 and 6.51.
In the case of `CN(C)CCCCn1c2ccccc2c2c3c(c4c5ccccc5cnc4c21)C(=O)NC3=O`, in assay [1], the pIC50 was 5.94.
In the case of `O=C1NC(=O)c2c1c1c3ccccc3ncc1c1[nH]c3ccccc3c21`, the figures for the pIC50 (in the assay on NCI-H460; in assay [1]; with HCT-116) were 6.18, 6.17 and 6.41, respectively.
In the case of `O=C1NC(=O)c2c1c1c3cccnc3ccc1c1[nH]c3ccccc3c21`, the results for the negative logarithm of the IC50 (pIC50) (with NCI-H460; in assay [1]; with HCT-116) were 5.72, below 6.70 and 6.37, respectively.
Molecule `O=C1NC(=O)c2c1c1c3ccccc3cnc1c1[nH]c3ccccc3c21` gave a pIC50 in assay [1] below 5.70.
For the molecule `COc1ccc2c(c1)[nH]c1c3cnc4ccccc4c3c3c(c21)C(=O)NC3=O`, the pIC50 in the assay with NCI-H460 is 6.41; in assay [1] it was 6.68.
The molecule `O=C1NC(=O)c2c1c1c3ccccc3cnc1c1[nH]c3c(CCO)cccc3c21` gave a pIC50 in assay [1] below 5.70.
Regarding `O=C1NC(=O)c2c1c1c3ccccc3ncc1c1[nH]c3cc(Cl)ccc3c21`, the pIC50 was 6.35 in the assay on NCI-H460, below 5.70 in assay [1] and 6.19 in the assay with HCT-116.
With `O=C1NC(=O)c2c1c1c3ccccc3cnc1c1c2c2ccccc2n1CCCCO`, the pIC50 in assay [1] is 5.94.
`O=C1NC(=O)c2c1c1cnc3ccccc3c1c1c2c2ccccc2n1CCCO` gave a pIC50 in assay [1] of 5.92.
Take `O=C1NC(=O)c2c1c1cnc3ccccc3c1c1[nH]c3ccccc3c21`: the pIC50 was 6.03 in the assay with NCI-H460, below 5.00 in assay [1] and 5.71 with HCT-116.
For `O=C1NC(=O)c2c1c1nc3ccccc3cc1c1[nH]c3ccccc3c21`, in that order: 5.39, below 5.00 and 5.26.
With `O=C1NC(=O)c2c1c1c3ccncc3ccc1c1[nH]c3ccccc3c21`, the results for the negative logarithm of the IC50 (pIC50) (in the assay with NCI-H460; in assay [1]; in the assay on HCT-116) were 7.13, 7.16 and 6.89, respectively.

Source of the values: ChEMBL document CHEMBL1136670, “Synthesis of quinolinyl/isoquinolinyl[a]pyrrolo [3,4-c] carbazoles as cyclin D1/CDK4 inhibitors” (Bioorg Med Chem Lett, 2003).
